The results in this text go back to patent publication US20240197738A1, “COMPOUND 7AI IN TREATING EWING SARCOMA BY INHIBITING OTUD7A” (The University of North Carolina at Chapel Hill, priority 2021, published 2024).

The subject of one series is EWS894 cells. Put plainly: Cell viability (MTT) assay, EWS894. It counts as cell-based, human. Conditions: EWS894, 3-day treatment. The procedure: (§1) 2,000 indicated cells were seeded in each well of 96-well plates for MTT assays to monitor cell viability at indicated time periods using a method adapted from https://www.thermofisher.com/us/en/home/references/protocols/cell-culture/mtt-assay-protocol/vybrant-mtt-cell-proliferation-assay-kit.html. Briefly, at indicated time points post-cell seeding, 10 μL MTT solution was added into each well and incubated in the culture incubator (37° C. with 5% CO2) for 4 hrs. Then medium was removed and 100 μL DMSO was added into each well to dissolve the formazan crystal and incubated for 10 min at 37° C. After thorough mixing, absorbance at 540 nm was measured using the BioTek Cytation 5 Cell Imaging reader.

The subject of series [1] is A673 cells xenografted tumor. As to the kind of experiment: Mouse xenograft assay with A673 cells. The series is classed as in vivo, nude mice. The procedure: All mouse work has been reviewed and approved by UNC Institutional Animal Care and Use Committee under IACUC #19-031. Mouse xenograft assays were performed as described previously. Briefly, for mouse xenograft experiments, 2.5×10^6 parental or EWS-FLI1-3A knockin A673 cells were mixed 1:1 with matrigel (Corning 354230) and injected into the flank of indicated female nude mice (NCRNU-M-M from UNC Animal Facility, 4 weeks old). Six days post-injection, when the tumors were established, 2% sucrose with or without 1 μg/mL tetracycline was supplied in water for mice and refreshed every 5 days. Tumor size was measured every two days with a digital caliper, and the tumor volume was determined with the formula: L×W^2×0.52, where L is the longest diameter and W is the shortest diameter. After 22 days, mice were sacrificed, and tumors were dissected and weighed.
For 7Ai treatment in nude mice, 2.5×10^6 A673 cells were mixed 1:1 with matrigel (Corning 354230) and injected into the flank of indicated female nude mice (NCRNU-M-M from UNC Animal Facility, 4 weeks old). Seven days post-injection, when the tumors were established, 100 μL 7Ai (25 mg/kg, dissolved in ethanol followed by the addition of sunflower oil and then sonicated at 4° C. in a water bath sonicator until 7Ai was completely dissolved) was given to mice through IP injections and this treatment was repeated every 3 days.
Freshly dissected xenografted tumors are immediately fixed in 10% formalin for 2 days before transferring to 80% ethanol for one day to prepare tumor blocks. 4-μm sections were cut from each of the tumor blocks by UNC TPL facility and used for IHC study. IHC was performed as described previously. Normal human tissue TMA was purchased from UNC TPL facility. Human Ewing sarcoma tissues were obtained post-mortem and fixed in 10% formalin and embedded in paraffin.

Another series addresses T1, OTUD7B (Homo sapiens, UniProt Q6GQQ9).
T1 construct: endogenous in cells; host or cells: MHH-ES-1, EWS894
As to the kind of experiment: Immunoblot of known OTUD7B substrates (mTORC2, APC/Cdh1). The series is classed as cell-based. Conditions: MHH-ES-1 or EWS894 cells, 12 hrs (FIG. 5E). The protocol: Cells were lysed in EBC buffer (50 mM Tris pH 7.5, 120 mM NaCl, 0.5% NP-40) or Triton X-100 buffer (50 mM Tris pH 7.5, 150 mM NaCl, 1% Triton X-100) supplemented with protease inhibitors (Complete Mini, Roche) and phosphatase inhibitors (phosphatase inhibitor cocktail set I and II, Calbiochem). The protein concentrations of whole cell lysates were measured by NanoDrop OneC using the Bio-Rad protein assay reagent as described previously. Equal amounts of whole cell lysates were resolved by SDS-PAGE and immunoblotted with indicated antibodies. For immunoprecipitations analysis, unless specified, 1000 μg lysates were incubated with the indicated antibody (1-2 μg) for 3-4 hr at 4° C. followed by 1 hr incubation with 10 μL Protein A magnetic beads (New England Biolabs). Or 1000 μg lysates containing tagged molecules were incubated with agarose beads coupled antibodies for the specific tag for 3-4 hr at 4° C. For endogenous IPs, incubation of cell lysates with antibodies was extended to overnight. The recovered immuno-complexes were washed five times with NETN buffer (20 mM Tris, pH 8.0, 100 mM NaCl, 1 mM EDTA and 0.5% NP-40) before being resolved by SDS-PAGE and immunoblotted with indicated antibodies.
On the technique in general: In western blotting, separated proteins are transferred to a membrane and probed.

The subject of series [2] is A673 cells expressing EWS-FLI1-3A. Put plainly: Growth of A673 cells expressing EWS-FLI1-3A. It counts as cell-based, human. The procedure:
as §1

For the next series, the system named is Jurkat cells. As to the kind of experiment: Cell proliferation of Jurkat cells. It counts as cell-based, human. The protocol: as §1
Series [3] deals with foreskin fibroblast (FF) cells. As to the kind of experiment: Cell viability (MTT) assay, foreskin fibroblast. It counts as cell-based, human. Conditions: 72 hrs (FIG. 5S). The procedure:
as §1

Series [4] has as its target T2, His-tagged OTUD7A OTU domain (aa183-449) (Homo sapiens, UniProt Q8TE49).
T2 construct: the bacterially produced His-tagged OTUD7A OTU domain (aa183-449) was purified; made in house; host or cells: E. coli BL21 (pET28a vector)
Put plainly: Isothermal titration calorimetry (ITC) of 7Ai with OTUD7A OTU domain. Conditions: bacterially produced His-tagged OTUD7A OTU domain (aa183-449), read-out: binding affinity of 7Ai in vitro (ITC). The protocol: ITC measurements were performed using a MicroCal auto-iTC200 calorimeter (MicroCal, LLC) as described previously. Briefly, His-tagged OTU domain of OTUD7A proteins were purified using BL21 strain upon induced by 0.3 mM IPTG when OD600 around 0.6 overnight at 16° C. Then purified human His-tagged OTU domain of OTUD7A was dialyzed against 50 mM HEPES buffer (pH 7.2) with 100 mM NaCl for overnight at 4° C. The concentration of the protein was determined by band intensity in a gel-cod staining SDS-PAGE gel. The ITC assay was carried out at 37 °C. The dialyzed His-OTUD7A-OTU proteins were diluted to 40 μM in the dialysis buffer containing 4% DMSO. Then, 400 μM 7Ai, dissolved in the same dialysis buffer with 4% DMSO (50 mM HEPES buffer (pH 7.2) with 100 mM NaCl) was injected into 0.4 mL of His-OTUD7A-OTU protein in the chamber for every 180 s. The dissociation constants and thermodynamic parameters were determined by using the embedded software package Origin7 (Microcal).

T1 sequence (Q6GQQ9 whole entry): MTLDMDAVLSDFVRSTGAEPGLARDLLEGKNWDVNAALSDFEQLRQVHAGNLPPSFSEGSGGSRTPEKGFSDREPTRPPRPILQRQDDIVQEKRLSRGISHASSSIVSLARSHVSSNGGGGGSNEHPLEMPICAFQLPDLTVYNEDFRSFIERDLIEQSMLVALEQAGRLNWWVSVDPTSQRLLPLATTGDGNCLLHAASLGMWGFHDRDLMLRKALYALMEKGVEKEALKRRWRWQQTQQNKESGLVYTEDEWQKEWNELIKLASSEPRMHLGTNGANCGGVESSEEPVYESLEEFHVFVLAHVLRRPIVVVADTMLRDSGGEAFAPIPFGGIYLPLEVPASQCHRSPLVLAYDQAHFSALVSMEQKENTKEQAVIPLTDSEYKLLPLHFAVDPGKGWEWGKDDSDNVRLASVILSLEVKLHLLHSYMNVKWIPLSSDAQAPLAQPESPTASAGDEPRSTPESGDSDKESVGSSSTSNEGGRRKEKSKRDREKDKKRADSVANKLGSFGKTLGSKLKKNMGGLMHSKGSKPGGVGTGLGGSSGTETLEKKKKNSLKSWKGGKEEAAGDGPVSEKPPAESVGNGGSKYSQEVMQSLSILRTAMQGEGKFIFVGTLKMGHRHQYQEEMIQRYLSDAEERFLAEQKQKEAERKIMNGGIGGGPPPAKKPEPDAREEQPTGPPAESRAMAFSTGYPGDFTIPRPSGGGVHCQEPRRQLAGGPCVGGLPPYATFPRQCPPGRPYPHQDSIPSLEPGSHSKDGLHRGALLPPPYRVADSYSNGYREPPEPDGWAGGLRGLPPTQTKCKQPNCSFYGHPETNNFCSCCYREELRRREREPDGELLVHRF
T2 sequence (Q8TE49 183-449): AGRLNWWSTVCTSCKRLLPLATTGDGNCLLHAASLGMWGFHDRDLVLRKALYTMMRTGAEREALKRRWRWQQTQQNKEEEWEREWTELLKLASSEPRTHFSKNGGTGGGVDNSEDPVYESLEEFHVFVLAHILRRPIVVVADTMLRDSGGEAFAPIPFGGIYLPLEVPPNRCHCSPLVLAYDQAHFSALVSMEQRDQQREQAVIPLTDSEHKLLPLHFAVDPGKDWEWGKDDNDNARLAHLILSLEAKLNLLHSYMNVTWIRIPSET

With `Cn1nccc1-c1cc(-c2ccnn2C)n2nc(C(=O)Nc3cnn(Cc4c(Cl)cccc4Cl)c3)cc2n1` [7Ai], the “proliferation (cell viability)” value in the series with EWS894 cells is listed as “reduced proliferation”. Besides, the tumor volume entry in series [1] (A673 xenograft in nude mice, 25 mg/kg IP, vs vehicle (FIG. 5P)) is reported as “significantly reduced tumor volume”. Also, in series [1] (A673 xenograft in nude mice, 25 mg/kg IP, vs vehicle (FIGS. 5Q-5R)), the “tumor growth (dissected tumors, weight)” value is reported as “significantly reduced”. Further, in series [1] (A673 xenograft tumors, IHC), the “EWS-FLI1 protein in treated tumors” value is given as “reduced EWS-FLI1 protein”, the “apoptosis in treated tumors (cleaved-caspase3 staining)” value is listed as “increased apoptosis” and the “cell proliferation in treated tumors (Ki67 staining)” value is recorded as “reduced”. The body weight result in series [1] (nude mice, 25 mg/kg IP, 3-week treatment period) is reported as “did not significantly affect body weight”. Moreover, the “OTUD7B activities (known OTUD7B substrates mTORC2 and APC/Cdh1)” value on OTUD7B is reported as “did not significantly affect OTUD7B activities”. The cell growth entry in series [2] is “failed to significantly suppress growth”. For the same molecule, in the series with Jurkat cells, the cell proliferation entry is recorded as “reduced cell proliferation of Jurkat cells”. Further, the “proliferation (cell viability)” value in series [3] is “neglectable effects”. For the same molecule, in series [4], the Kd was roughly 1.1 µM.
